In patent US8648094B2, “IAP BIR domain binding compounds” (Pharmascience, Inc., priority 2006, dated 2014):

Tested on: SKOV-3 cells
Test: Survival MTT assay
Assay type: cell-based
Conditions: Homo sapiens, SK-OV-3, 72 hours
Description: One day prior the treatment with compound, 2000 to 4000 cells per well were plated in a tissue culture treated 96 well format dish with 100 uL of media and incubated at 37° C., 5% CO2. On the day of compound treatment, compounds were diluted with cell culture media to a working stock concentration of 2×. 100 ul of diluted compound were then added to each well. The treated plate was incubated for 72 hours at 37° C., 5% CO2. Upon incubation, the cell viability was assessed as follows; 20 uL of MTT reagent (5 mg/mL) were added per well to cell plate. The plate was incubated for 2 hrs at 37° C. in presence of 5% CO2. The supernatant was then removed from the plate and 100 uL of isopropanol was added. The absorbance was measured in a TECAN spectrophotometer at 570 nm. The percentage of viability was expressed in percentage of the signal obtained with non treated cells.

Row | Structure (SMILES) | EC50
1 | CN[C@@H](C)C(=O)N[C@H](C(=O)N1CCC[C@H]1CN(CCc1ccccc1)C(=O)[C@H]1CCCN1C(=O)c1ccc(C(=O)N2CCC[C@@H]2C(=O)N(CCc2ccccc2)C[C@@H]2CCCN2C(=O)[C@@H](NC(=O)[C@H](C)NC)C(C)(C)C)cc1)C(C)(C)C [Compound 81] | > 25 nM
2 | CN[C@@H](C)C(=O)N[C@H](C(=O)N1CCC[C@H]1CN(CCc1ccccc1)C(=O)CCCC(=O)N(CCc1ccccc1)C[C@@H]1CCCN1C(=O)[C@@H](NC(=O)[C@H](C)NC)C(C)(C)C)C(C)(C)C [Compound 3] | 10 to 25 nM
3 | CN[C@@H](C)C(=O)N[C@H](C(=O)N1CCC[C@H]1CN(CCc1ccccc1)C(=O)CNC(=O)c1ccc2ccc(C(=O)NCC(=O)N(CCc3ccccc3)C[C@@H]3CCCN3C(=O)[C@@H](NC(=O)[C@H](C)NC)C(C)(C)C)cc2c1)C(C)(C)C [Compound 85] | < 10 nM
4 | CN[C@@H](C)C(=O)N[C@H](C(=O)N1CCC[C@H]1CN(CCc1ccccc1)C(=O)c1ccc(C(=O)N(CCc2ccccc2)C[C@@H]2CCCN2C(=O)[C@@H](NC(=O)[C@H](C)NC)C(C)(C)C)cc1)C(C)(C)C [Compound 1] | 10 to 25 nM
5 | CN[C@@H](C)C(=O)N[C@H](C(=O)N1CCC[C@H]1CN(CCc1ccccc1)C(=O)[C@H](C)NC(=O)c1ccc(C(=O)N[C@@H](C)C(=O)N(CCc2ccccc2)C[C@@H]2CCCN2C(=O)[C@@H](NC(=O)[C@H](C)NC)C(C)(C)C)cc1)C(C)(C)C [Compound 62] | > 25 nM
6 | CN[C@@H](C)C(=O)N[C@H](C(=O)N1CCC[C@H]1CN(CCc1ccc(F)cc1)C(=O)CNC(=O)c1ccc(-c2ccc(C(=O)NCC(=O)N(CCc3ccc(F)cc3)C[C@@H]3CCCN3C(=O)[C@@H](NC(=O)[C@H](C)NC)C(C)(C)C)cc2)cc1)C(C)(C)C [Compound 76] | < 10 nM
7 | CN[C@@H](C)C(=O)N[C@H](C(=O)N1CCC[C@H]1CN(CCc1ccccc1)C(=O)CCCCCCC(=O)N(CCc1ccccc1)C[C@@H]1CCCN1C(=O)[C@@H](NC(=O)[C@H](C)NC)C(C)(C)C)C(C)(C)C [Compound 7] | 10 to 25 nM
8 | CN[C@@H](C)C(=O)N[C@H](C(=O)N1CCC[C@H]1CN(CCc1ccccc1)C(=O)CCCCCCCCC(=O)N(CCc1ccccc1)C[C@@H]1CCCN1C(=O)[C@@H](NC(=O)[C@H](C)NC)C(C)(C)C)C(C)(C)C [Compound 2] | < 10 nM
9 | CN[C@@H](C)C(=O)N[C@H](C(=O)N1CCC[C@H]1CN(CCc1ccccc1)S(=O)(=O)c1cccc(S(=O)(=O)N(CCc2ccccc2)C[C@@H]2CCCN2C(=O)[C@@H](NC(=O)[C@H](C)NC)C(C)(C)C)c1)C(C)(C)C [Compound 36] | < 10 nM
10 | CN[C@@H](C)C(=O)N[C@H](C(=O)N1CCC[C@H]1CN(CCc1ccccc1)C(=O)CNC(=O)CCCCC(=O)NCC(=O)N(CCc1ccccc1)C[C@@H]1CCCN1C(=O)[C@@H](NC(=O)[C@H](C)NC)C(C)(C)C)C(C)(C)C [Compound 50] | 10 to 25 nM
11 | CN[C@@H](C)C(=O)N[C@H](C(=O)N1CCC[C@H]1CN(Cc1cccc(-c2ccccc2)c1)C(=O)CCCCCCCCC(=O)N(Cc1cccc(-c2ccccc2)c1)C[C@@H]1CCCN1C(=O)[C@@H](NC(=O)[C@H](C)NC)C(C)(C)C)C(C)(C)C [Compound 75] | 10 to 25 nM
12 | CN[C@@H](C)C(=O)N[C@H](C(=O)N1CCC[C@H]1CN(CCc1ccccc1)C(=O)c1ccc(-c2cccc(C(=O)N(CCc3ccccc3)C[C@@H]3CCCN3C(=O)[C@@H](NC(=O)[C@H](C)NC)C(C)(C)C)c2)cc1)C(C)(C)C [Compound 64] | 10 to 25 nM
13 | CN[C@@H](C)C(=O)N[C@H](C(=O)N1CCC[C@H]1CN(CCc1ccccc1)C(=O)c1ccc(-c2ccc(C(=O)N(CCc3ccccc3)C[C@@H]3CCCN3C(=O)[C@@H](NC(=O)[C@H](C)NC)C(C)(C)C)cc2)cc1)C(C)(C)C [Compound 4] | < 10 nM
14 | CN[C@@H](C)C(=O)N[C@H](C(=O)N1CCC[C@H]1CN(CCc1ccccc1)C(=O)CCC(=O)N(CCc1ccccc1)C[C@@H]1CCCN1C(=O)[C@@H](NC(=O)[C@H](C)NC)C(C)(C)C)C(C)(C)C [Compound 6] | > 25 nM
15 | CN[C@@H](C)C(=O)N[C@H](C(=O)N1CCC[C@H]1CN(CCc1ccccc1)C(=O)CCCCCCCCCCC(=O)N(CCc1ccccc1)C[C@@H]1CCCN1C(=O)[C@@H](NC(=O)[C@H](C)NC)C(C)(C)C)C(C)(C)C [Compound 18] | 10 to 25 nM
16 | CN[C@@H](C)C(=O)N[C@H](C(=O)N1CCC[C@H]1CN(CCc1ccccc1)C(=O)CN(C)C(=O)c1ccc(-c2ccc(C(=O)N(C)CC(=O)N(CCc3ccccc3)C[C@@H]3CCCN3C(=O)[C@@H](NC(=O)[C@H](C)NC)C(C)(C)C)cc2)cc1)C(C)(C)C [Compound 77] | 10 to 25 nM
17 | CN[C@@H](C)C(=O)N[C@@H](CC1CCCCC1)C(=O)N1CCC[C@H]1CN(CCc1ccccc1)C(=O)CCCCCCCCC(=O)N(CCc1ccccc1)C[C@@H]1CCCN1C(=O)[C@H](CC1CCCCC1)NC(=O)[C@H](C)NC [Compound 9] | > 25 nM

Row | Structure (SMILES) | EC50
18 | CN[C@@H](C)C(=O)N[C@H](C(=O)N1CCC[C@H]1CN(CCc1ccccc1)C(=O)CNC(=O)c1ccc2cc(C(=O)NCC(=O)N(CCc3ccccc3)C[C@@H]3CCCN3C(=O)[C@@H](NC(=O)[C@H](C)NC)C(C)(C)C)ccc2c1)C(C)(C)C [Compound 63] | < 10 nM
19 | CN[C@@H](C)C(=O)N[C@H](C(=O)N1CCC[C@H]1CN(CCc1ccccc1)C(=O)[C@@H](C)NC(=O)c1ccc(C(=O)N[C@H](C)C(=O)N(CCc2ccccc2)C[C@@H]2CCCN2C(=O)[C@@H](NC(=O)[C@H](C)NC)C(C)(C)C)cc1)C(C)(C)C [Compound 59] | < 10 nM
20 | CN[C@@H](C)C(=O)N[C@H](C(=O)N1CCC[C@H]1C(=O)N(CCc1ccccc1)Cc1ccc(CN(CCc2ccccc2)C(=O)[C@@H]2CCCN2C(=O)[C@@H](NC(=O)[C@H](C)NC)C(C)(C)C)cc1)C(C)(C)C [Compound 79] | 10 to 25 nM
21 | CN[C@@H](C)C(=O)N[C@H](C(=O)N1CCC[C@H]1CN(CCc1ccccc1)S(=O)(=O)c1ccc2ccc(S(=O)(=O)N(CCc3ccccc3)C[C@@H]3CCCN3C(=O)[C@@H](NC(=O)[C@H](C)NC)C(C)(C)C)cc2c1)C(C)(C)C [Compound 90] | 10 to 25 nM
22 | CN[C@@H](C)C(=O)N[C@H](C(=O)N1CCC[C@H]1CN(CCc1ccccc1)C(=O)CN(C)Cc1ccc(CN(C)CC(=O)N(CCc2ccccc2)C[C@@H]2CCCN2C(=O)[C@@H](NC(=O)[C@H](C)NC)C(C)(C)C)cc1)C(C)(C)C [Compound 43] | 10 to 25 nM
23 | CN[C@@H](C)C(=O)N[C@H](C(=O)N1CCC[C@H]1CN(CCc1ccc(F)cc1)C(=O)CNC(=O)c1ccc(C(=O)NCC(=O)N(CCc2ccc(F)cc2)C[C@@H]2CCCN2C(=O)[C@@H](NC(=O)[C@H](C)NC)C(C)(C)C)cc1)C(C)(C)C [Compound 71] | < 10 nM
24 | CN[C@@H](C)C(=O)N[C@H](C(=O)N1CCC[C@H]1CN(CCc1ccc(F)cc1)C(=O)CCC(=O)N(CCc1ccc(F)cc1)C[C@@H]1CCCN1C(=O)[C@@H](NC(=O)[C@H](C)NC)C(C)(C)C)C(C)(C)C [Compound 48] | 10 to 25 nM
25 | CN[C@@H](C)C(=O)N[C@H](C(=O)N1CCC[C@H]1CN(CCc1ccc(F)cc1)C(=O)CNC(=O)c1cccc(C(=O)NCC(=O)N(CCc2ccc(F)cc2)C[C@@H]2CCCN2C(=O)[C@@H](NC(=O)[C@H](C)NC)C(C)(C)C)c1)C(C)(C)C [Compound 83] | < 10 nM
26 | CN[C@@H](C)C(=O)N[C@H](C(=O)N1CCC[C@H]1CN(CCc1ccccc1)C(=O)c1ccc(Oc2ccc(C(=O)N(CCc3ccccc3)C[C@@H]3CCCN3C(=O)[C@@H](NC(=O)[C@H](C)NC)C(C)(C)C)cc2)cc1)C(C)(C)C [Compound 27] | > 25 nM
27 | CN[C@@H](C)C(=O)N[C@H](C(=O)N1CCC[C@H]1CN(CCc1ccc(F)cc1)C(=O)CNC(=O)C(=O)NCC(=O)N(CCc1ccc(F)cc1)C[C@@H]1CCCN1C(=O)[C@@H](NC(=O)[C@H](C)NC)C(C)(C)C)C(C)(C)C [Compound 73] | < 10 nM
28 | CN[C@@H](C)C(=O)N[C@H](C(=O)N1CCC[C@H]1CN(CCc1ccccc1)S(=O)(=O)c1ccc2cc(S(=O)(=O)N(CCc3ccccc3)C[C@@H]3CCCN3C(=O)[C@@H](NC(=O)[C@H](C)NC)C(C)(C)C)ccc2c1)C(C)(C)C [Compound 92] | < 10 nM
29 | CN[C@@H](C)C(=O)N[C@H](C(=O)N1CCC[C@H]1CN(CCc1ccccc1)S(=O)(=O)c1ccc(-c2ccc(S(=O)(=O)N(CCc3ccccc3)C[C@@H]3CCCN3C(=O)[C@@H](NC(=O)[C@H](C)NC)C(C)(C)C)cc2)cc1)C(C)(C)C [Compound 13] | 10 to 25 nM
30 | CN[C@@H](C)C(=O)N[C@H](C(=O)N1CCC[C@H]1CN(CCc1ccccc1F)C(=O)CCCCCCCCC(=O)N(CCc1ccccc1F)C[C@@H]1CCCN1C(=O)[C@@H](NC(=O)[C@H](C)NC)C(C)(C)C)C(C)(C)C [Compound 46] | < 10 nM
31 | CN[C@@H](C)C(=O)N[C@H](C(=O)N1CCC[C@H]1CN(CCc1ccc(F)cc1)C(=O)c1ccc(-c2ccc(C(=O)N(CCc3ccc(F)cc3)C[C@@H]3CCCN3C(=O)[C@@H](NC(=O)[C@H](C)NC)C(C)(C)C)cc2)cc1)C(C)(C)C [Compound 58] | 10 to 25 nM
32 | CN[C@@H](C)C(=O)N[C@H](C(=O)N1CCC[C@H]1CN(CCc1ccccc1)C(=O)CNC(=O)c1cccc(C(=O)NCC(=O)N(CCc2ccccc2)C[C@@H]2CCCN2C(=O)[C@@H](NC(=O)[C@H](C)NC)C(C)(C)C)n1)C(C)(C)C [Compound 88] | > 25 nM
33 | CN[C@@H](C)C(=O)N[C@H](C(=O)N1CCC[C@H]1CN(CCc1ccc(F)cc1)S(=O)(=O)c1cccc(S(=O)(=O)N(CCc2ccc(F)cc2)C[C@@H]2CCCN2C(=O)[C@@H](NC(=O)[C@H](C)NC)C(C)(C)C)c1)C(C)(C)C [Compound 57] | 10 to 25 nM
34 | CN[C@@H](C)C(=O)N[C@H](C(=O)N1CCC[C@H]1CN(C[C@@H](C)c1ccccc1)C(=O)CCCCCCCCC(=O)N(C[C@@H]1CCCN1C(=O)[C@@H](NC(=O)[C@H](C)NC)C(C)(C)C)C[C@@H](C)c1ccccc1)C(C)(C)C [Compound 22] | > 25 nM
